The source of these data is paper PMC7191384, “Multimodal α-Glucosidase and α-Amylase Inhibition and Antioxidant Effect of the Aqueous and Methanol Extracts from the Trunk Bark of Ceiba pentandra” (BioMed Research International, 2020).

The target in one assay is T1, α-glucosidase (Saccharomyces cerevisiae, UniProt P53341).
T1 construct: purchased Sigma-Aldrich Chemical Co. (Taufkirchen, Germany)
Nature of the assay: α-Glucosidase inhibitory test (pNPG). The format is biochemical. To be noted: according to the efficacy index. The procedure:
The ability of C. pentandra extracts to inhibit the activity of α-glucosidase was assessed according to Kim et al.'s protocol. Shortly, α-glucosidase (1 U/ml) from Saccharomyces cerevisiae was preincubated with 250 μl extracts for 10 minutes. P-nitrophenyl glucopyranoside substrate solution (pNPG, 3 mM) prepared in 20 mM phosphate buffer (pH 6.9) containing 2 mg/ml BSA was added to start the reaction. The reaction mixture was incubated at 37°C for 20 minutes and stopped with 1 ml of Na2CO3 (1 M). α-Glucosidase activity was determined by measuring paranitrophenol released from pNPG at 405 nm. The percent inhibition was calculated as follows: (3) %inhibition=OD control−OD sample/OD control×100.

The nature of assay [1]: Hydrogen peroxide scavenging activity. How it is done: A method previously described by Ruch et al. was used to assess the ability of plant extracts to decompose hydrogen peroxide (H2O2). Briefly, a 40 mM solution of H2O2 prepared in phosphate buffer (pH 7.4) was mixed with graded concentrations (1-300 μg/ml) of extracts or ascorbic acid. After 10 min of incubation, optical densities were read at 230 nm against a blank solution made up of phosphate buffer without H2O2. The percentage of H2O2 scavenging activity was calculated as in the previous test.

Assay [2] in a line: Superoxide anion scavenging test (PMS-NADH/NBT). The procedure:
Superoxide anions were generated in a phenazine methosulfate- (PMS-) NADH system. The reaction mixture was made of 0.5 ml test solution, 0.95 ml 0.1 M phosphate buffer (pH 7.4), 0.5 ml […] in phosphate buffer (pH 7.4). Extracts were used at concentrations of 1, 3, 10, 30, 100, and 300 μg/ml. Gallic acid was tested at the same concentrations and used as a reference drug. Reduction of nitroblue tetrazolium was monitored at 560 nm on a Helios Epsilon Spectrophotometer (Thermo Fisher Scientific). The test was carried out in triplicate. The percent inhibition was calculated as follows: […]

Assay [3] concerns BSA oxidation induced by H2O2. Nature of the assay: H2O2-induced protein oxidation assay (BSA thiol groups). Set-up: species or system bovine. How it is done:
(§1) The effect of plant extracts against protein oxidation was evaluated according to the method of Simplicio et al. with some modifications. Zero point five milliliter aliquots of BSA (30 mg/ml) prepared in phosphate buffer saline (50 mM, pH 7.4) were incubated with 0.5 ml of extracts or gallic acid. Fifteen minutes later, 0.5 ml of H2O2 (20 mM) or AAPH (2′,2′-azobis (2-methylpropionamidine) dihydrochloride) solution (50 mM) in another set of experiment, was added to the reaction medium and incubated at 37°C for 30 minutes and 1 hour, respectively. Proteins were precipitated with ammonium sulfate (70%) followed by vigorous shaking and centrifugation at 3000 rpm. The pellet obtained was resuspended in 1.5 ml of PBS, and 0.2 ml of Ellman's reagent was introduced. The level of thiol groups was measured 10 minutes later at 412 nm.

Assay [4] deals with BSA oxidation induced by AAPH. Nature of the assay: AAPH-induced protein oxidation assay (BSA thiol groups). Set-up: species or system bovine. The procedure:
as §1

T1 sequence (P53341 whole entry): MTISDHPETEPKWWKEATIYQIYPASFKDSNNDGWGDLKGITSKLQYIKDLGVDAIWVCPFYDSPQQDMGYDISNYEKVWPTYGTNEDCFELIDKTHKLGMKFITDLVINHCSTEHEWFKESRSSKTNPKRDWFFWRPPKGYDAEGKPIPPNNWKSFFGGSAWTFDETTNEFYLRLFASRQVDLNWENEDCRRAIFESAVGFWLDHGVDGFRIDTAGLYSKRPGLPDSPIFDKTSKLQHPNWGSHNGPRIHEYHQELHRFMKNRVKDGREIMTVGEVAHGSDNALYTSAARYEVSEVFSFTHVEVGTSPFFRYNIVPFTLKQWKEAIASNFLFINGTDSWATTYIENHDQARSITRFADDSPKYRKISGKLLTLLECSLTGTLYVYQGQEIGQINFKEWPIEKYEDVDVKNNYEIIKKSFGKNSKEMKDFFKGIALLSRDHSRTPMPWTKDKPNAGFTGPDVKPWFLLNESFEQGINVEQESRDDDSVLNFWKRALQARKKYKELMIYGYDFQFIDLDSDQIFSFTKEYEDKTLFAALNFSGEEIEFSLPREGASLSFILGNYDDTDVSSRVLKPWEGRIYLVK

Turning to `C[C@H]1O[C@H](O[C@H]2[C@H](O)[C@@H](O)[C@@H](O[C@H]3[C@H](O)[C@@H](O)C(O)O[C@@H]3CO)O[C@@H]2CO)[C@H](O)[C@@H](O)[C@@H]1N[C@H]1C=C(CO)[C@@H](O)[C@H](O)[C@H]1O` (stereo partly shown) [Acarbose, acarbose], on α-glucosidase, the “α-Glucosidase: inhibitory effect, times greater than that of the methanol extract” value is reported as 10 times and the “α-Glucosidase: inhibitory effect, times the magnitude of the aqueous extract” value was “more than 15 times”.

With `O=C1O[C@H]([C@@H](O)CO)C(O)=C1O` [Ascorbic acid, ascorbic acid], the “Hydrogen peroxide EI (efficiency index)” value in assay [1] is on record as 4.77. Besides, the “Hydrogen peroxide IC50” value in assay [1] (1-300 μg/ml, 10 min incubation) stood at 13.84 µg/mL.

As for `O=C(O)c1cc(O)c(O)c(O)c1` [Gallic acid, gallic acid], in assay [2], the “Superoxide anion EI (efficiency index, maximal activity/IC50)” value is recorded as 1.43. For the same compound, the “Superoxide anion IC50” value in assay [2] (concentrations 1-300 μg/ml) turned out to be 55.66 µg/mL. For the same compound, the “H2O2 protein oxidation EI (efficiency index)” value in assay [3] worked out at 1.74. In assay [3] (BSA, H2O2 20 mM, 37°C, 30 minutes), the “H2O2 protein oxidation IC50” value is 29.9 µg/mL. Besides, the “AAPH protein oxidation EI (efficiency index)” value in assay [4] is listed as 0.64. Also, the “AAPH protein oxidation IC50” value in assay [4] (BSA, AAPH 50 mM, 37°C, 1 hour) is 90.17 µg/mL.
